Assay results reported in US10980725B2, “Cosmetic compositions and method of treating the skin” (Johnson & Johnson Consumer Inc., priority 2017, dated 2021).
Like-named read-outs stand apart in the source and are kept apart here.

Key:
[1] = target: T1, Human Retinoic Acid Receptor Gamma (Homo sapiens, UniProt P13631); experiment: RARγ transactivation cellular assay (luciferase reporter, Indigo Biosciences #IB02001); type: cell-based; conditions: for RARγ transactivation (in words): 0.1 μM, 1 μM and 10 μM; for RARγ receptor transactivation values (ratio: RLU of tested material/RLU of control): 24 h incubation
T1 sequence (P13631 1-454): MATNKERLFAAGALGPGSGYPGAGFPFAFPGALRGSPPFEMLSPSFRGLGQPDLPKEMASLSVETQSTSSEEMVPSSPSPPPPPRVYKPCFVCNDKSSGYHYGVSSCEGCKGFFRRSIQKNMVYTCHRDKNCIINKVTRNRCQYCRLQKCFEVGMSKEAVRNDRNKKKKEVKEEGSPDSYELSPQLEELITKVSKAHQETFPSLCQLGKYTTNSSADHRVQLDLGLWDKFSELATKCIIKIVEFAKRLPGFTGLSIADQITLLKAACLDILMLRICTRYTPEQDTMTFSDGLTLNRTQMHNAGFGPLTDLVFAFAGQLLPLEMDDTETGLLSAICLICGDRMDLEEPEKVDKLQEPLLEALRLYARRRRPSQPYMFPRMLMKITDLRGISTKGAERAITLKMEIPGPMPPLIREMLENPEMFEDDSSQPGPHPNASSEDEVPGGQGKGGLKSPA
Protocol: Test Method 1 RARγ Transactivation Cellular Assay
This assay system uses non-human cells engineered to provide constitutive, high-level expression of the Human Retinoic Acid Receptor Gamma, a ligand-dependent transcription factor. Cells include the luciferase reporter gene functionally linked to a RARγ-responsive promoter. Thus, quantifying changes in luciferase expression in the treated reporter cells provides a sensitive measure of the changes in RARγ activity.
Engineered cells are seeded in 96-well plates and treated with the assessed compounds at 3 concentrations: 0.1 μM, 1 μM and 10 μM. After 24 h incubation, treatment media are discarded and Luciferase detection reagent is added. Light emission from each assay well is quantified using a plate-reading luminometer.

RARγ receptors = target: T2, RARγ receptors (Homo sapiens, UniProt P13631); experiment: GenBLAzer RAR gamma cell-based assay, agonist mode (AG) and positive allosteric modulator mode (PAM); conditions: unit from horizontal axis of FIG. 1
T2 sequence (P13631 185-419 limits assumed): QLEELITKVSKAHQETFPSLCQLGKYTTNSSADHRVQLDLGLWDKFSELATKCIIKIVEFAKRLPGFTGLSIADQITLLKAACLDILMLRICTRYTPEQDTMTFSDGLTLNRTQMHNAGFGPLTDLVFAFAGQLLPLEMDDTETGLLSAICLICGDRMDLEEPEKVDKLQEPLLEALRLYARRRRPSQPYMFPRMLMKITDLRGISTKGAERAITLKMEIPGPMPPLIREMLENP
Protocol: Test Method 2 RARγ Receptors in Both Agonist Mode (AG) and Positive Allosteric Modulator Mode (PAM)
Dose response activity on RARγ receptors in both agonist mode (AG) and Positive allosteric modulator mode (PAM) was tested using Invitrogen's GenBLAzer® RAR gamma cell-based assay according to the manufacturer's instructions.

[2] = tested on: CRABP2 (cellular retinoic acid binding protein-II) gene expression; experiment: CRABP2 gene expression in human skin explants (qPCR); type: cell-based; conditions: 48 h; for CRABP2 mRNA expression in skin explant: topical; for CRABP2 gene expression in human skin explants (in words): applied topically, 10 μM and 100 μM
Protocol: (§1) Test Method 3 CRABP2 (Cellular Retinoic Acid Binding Protein-II) and HBEGF (Heparin-Binding Epidermal Growth Factor-Like Growth Factor) Gene Expression in Human Explants
(§2) Human skin explants were prepared as described by Bellemère et al. (Journal of Investigative Dermatology (2008) 128, 542-548), treated with 4 μl of compound (1) or (2) (Cpd (1) and Cpd (2) in the figure) at 2 concentrations: 10 μM and 100 μM and incubated at 37° C., 5% CO2 in 6-well plates containing 1.5 ml of medium during 48 h. After 48 h, the epidermis of each explant is detached from the dermis and (i) lysed for RNA extraction with Qiagen Rneasy kit, (ii) reverse transcripted using the thermocycler iCycler from Biorad and Applied Biosystems kit and (iii) analyzed for gene expression by performing a qPCR using the CFX96 Biorad Q-PCR system and Power Sybergreen PCR master mix from Applied Biosystems. All steps were performed according to the manufacturer's instructions. […] Compounds (1) and (2), used at doses of 10 μM and 100 μM, elicit retinol-like bioactivity, as shown by the induction of CRABP2 and HB-EGF gene expression.

[3] = tested on: HBEGF (heparin-binding epidermal growth factor-like growth factor) gene expression; experiment: HBEGF gene expression in human skin explants (qPCR); type: cell-based; conditions: 48 h; for HB-EGF gene expression in skin explant: topical; for HBEGF gene expression in human skin explants (in words): applied topically, 10 μM and 100 μM
Protocol: as §1, §2

[4] = tested on: interleukin 8 (IL-8 mRNA); experiment: Gene expression of inflammatory mediator interleukin 8 in skin explant; type: cell-based, human; conditions: 48 h; for IL-8 mRNA expression in skin explant: topical; for IL-8 mRNA expression as compared to Neutrogena RWR (in words): skin explant
Protocol: as §2
Test Method 4 Gene Expression of Inflammatory Mediator Interleukin 8 (IL-8 mRNA)
The skin explant used in Test Method 3 was used to measure the expression of the gen for IL-8 mRNA.
As depicted in the Figure below, IL-8 mRNA expression is lower in explant treated with both compounds (1) and (2) as compared to Neutrogena RWR.

[5] = agonist mode, read-out: average EC50, dose response activity on RARγ in agonist mode
[6] = positive allosteric modulator mode, read-out: average EC50, dose response activity on RARγ in positive allosteric modulator mode
[7] = 10^−4M in vehicle (PG70/EtOH30)
[8] = 10^−5M in vehicle (PG70/EtOH30)

Row | Structure (SMILES) | RARγ transactivation (in words) [1] | RARγ receptor transactivation values (ratio: RLU of tested material/RLU of control) ([1]; concentration 0.1 μM) | RARγ receptor transactivation values (ratio: RLU of tested material/RLU of control) ([1]; concentration 1 μM) | RARγ receptor transactivation values (ratio: RLU of tested material/RLU of control) ([1]; concentration 10 μM) | EC50 (RARγ receptors; [5]) [nM] | EC50 (RARγ receptors; [6]) [nM] | CRABP2 mRNA expression in skin explant [2, 7] [% control] | CRABP2 mRNA expression in skin explant [2, 8] [% control] | CRABP2 gene expression in human skin explants (in words) [2] | HB-EGF gene expression in skin explant [3, 7] [%] | HB-EGF gene expression in skin explant [3, 8] [%] | HBEGF gene expression in human skin explants (in words) [3] | IL-8 mRNA expression in skin explant [4, 7] [% control] | IL-8 mRNA expression in skin explant [4, 8] [% control] | IL-8 mRNA expression as compared to Neutrogena RWR (in words) [4]
1 | CC(/C=C/C=C(\C)c1ccc2c(c1)C(C)(C)C(C)(C)C2(C)C)=C\C(=O)O [Compound 1, (2E,4E,6E)-7-(1,1,2,2,3,3-hexamethyl-2,3-dihydro-1H-inden-5-yl)-3-methylocta-2,4,6-trienoic acid] | showed RARγ transactivation | 10.6988 | 8.4578 | 6.506 | 0.0831 | 0.0301 | 496 | 256 | induced | 513 | 218 | induced | 410 | 422 | lower
2 | C=C(c1ccc(C(=O)O)cc1)c1ccc2c(c1)C(C)(C)C(C)(C)C2(C)C [Compound 2, 4-(1-(1,1,2,2,3,3-hexamethyl-2,3-dihydro-1H-inden-5-yl)vinyl)benzoic acid] | showed RARγ transactivation | 5.5663 | 3.253 | 6.7229 | 7.1 ± 0.7 | 6.7 ± 2.7 | 340 | 191 | induced | 358 | 173 | induced | 690 | 334 | lower
